Assay results reported in patent US7205382B2, “Peptides, the production and use thereof for binding immunoglobulins” (Fresenius Medical Care Affina GmbH, priority 2000, dated 2007).
Bridge positions count the residues as written; N and C are the ends. Square brackets hold non-standard residues; d marks the D form. Ends that are not written are not given here. cellulose = not defined here; βAla = NCCC(=O)O

How the values were obtained:
Format in all cases: binding
Design in all cases: key: No binding of immunoglobulin for the defined peptide variant, detection negative: 0; Binding of immunoglobulin for the defined peptide variant, detection positive: +
[1] = system: immunoglobulins in human plasma; experiment: Cellulose-immobilized 13-mer peptide variants incubated with human plasma, anti-human IgG-AP detection; conditions: human plasma as sample, diluted 1:10,000 in blocking buffer, 3 h room temperature
Procedure, shortened: (§1)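 Binding is scored by NBT/BCIP precipitate from an AP-conjugated anti-human IgG probe on membrane-synthesized peptides. Targets are applied for 3 h at room temperature in 4% BSA/5% saccharose block: IgG-Fc at 1 μg/ml, serum at 1:10,000.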

[2] = system: serum albumin; experiment: Cellulose-immobilized 13-mer peptide variants incubated with serum albumin (negative control), anti-human IgG-AP detection; conditions: blocking buffer without addition, 3 h room temperature
Procedure, shortened: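 Spot membrane, (βA)(βA) spacer; T-TBS pH 8.0 wash, block 5% saccharose/4% BSA. 3 h RT with IgG-Fc 1 μg/ml, serum 1:10,000, or block buffer only (specificity control). 3× wash, AP-anti-human IgG 1.2 μg/ml, NBT/BCIP in pH 9.5 buffer.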

[3] = system: human IgG-Fc; experiment: Cellulose-immobilized 13-mer peptide variants incubated with human IgG-Fc, anti-human IgG-AP detection; conditions: IgG-Fc 1 μg/ml in blocking buffer, 3 h room temperature
Procedure, shortened: as §1

06V: cellulose-bound 13-mer variant DCAWHVGELVWCT-(βA)(βA) (DCAWHVGELVWCT-{βAla-βAla-cellulose}; disulfide 2-12 (inferred); not fully specified (N-terminus); printed as DCAWHVGELVWCT-(βA)(βA); reading uncertain)
Result for incubation with human plasma (immunoglobulin binding detection) [1]: 0 | Result for incubation with serum albumin (immunoglobulin binding detection) [2]: 0 | Result for incubation with human IgG-Fc (immunoglobulin binding detection) [3]: 0

02T: cellulose-bound 13-mer variant DTAWHLGELVWCT-(βA)(βA) (DTAWHLGELVWCT[βAla][βAla]; not fully specified; printed as DTAWHLGELVWCT-(βA)(βA); also: cellulose-bound)
Result for incubation with human plasma (immunoglobulin binding detection) [1]: 0 | Result for incubation with serum albumin (immunoglobulin binding detection) [2]: 0 | Result for incubation with human IgG-Fc (immunoglobulin binding detection) [3]: 0

09I: cellulose-bound 13-mer variant DCAWHLGEIVWCT-(βA)(βA) (DCAWHLGEIVWCT-{βAla-βAla-cellulose}; disulfide 2-12 (inferred); reading uncertain; also: printed as DCAWHLGEIVWCT-(βA)(βA))
Result for incubation with human plasma (immunoglobulin binding detection) [1]: 0 | Result for incubation with serum albumin (immunoglobulin binding detection) [2]: 0 | Result for incubation with human IgG-Fc (immunoglobulin binding detection) [3]: 0

03V: cellulose-bound 13-mer variant DCVWHLGELVWCT-(βA)(βA) (DCVWHLGELVWCT-{βAla-βAla-cellulose}; disulfide 2-12 (inferred); reading uncertain; also: printed as DCVWHLGELVWCT-(βA)(βA))
Result for incubation with human plasma (immunoglobulin binding detection) [1]: 0 | Result for incubation with serum albumin (immunoglobulin binding detection) [2]: 0 | Result for incubation with human IgG-Fc (immunoglobulin binding detection) [3]: 0

03S: cellulose-bound 13-mer variant DCSWHLGELVWCT-(βA)(βA) (DCSWHLGELVWCT-{βAla-βAla-cellulose}; disulfide 2-12 (inferred); reading uncertain; also: printed as DCSWHLGELVWCT-(βA)(βA))
Result for incubation with human plasma (immunoglobulin binding detection) [1]: + | Result for incubation with serum albumin (immunoglobulin binding detection) [2]: 0 | Result for incubation with human IgG-Fc (immunoglobulin binding detection) [3]: +

08S: cellulose-bound 13-mer variant DCAWHLGSLVWCT-(βA)(βA) (DCAWHLGSLVWCT-{βAla-βAla-cellulose}; disulfide 2-12 (inferred); reading uncertain; also: printed as DCAWHLGSLVWCT-(βA)(βA))
Result for incubation with human plasma (immunoglobulin binding detection) [1]: 0 | Result for incubation with serum albumin (immunoglobulin binding detection) [2]: 0 | Result for incubation with human IgG-Fc (immunoglobulin binding detection) [3]: +

06M: cellulose-bound 13-mer variant DCAWHMGELVWCT-(βA)(βA) (DCAWHMGELVWCT-{βAla-βAla-cellulose}; disulfide 2-12 (inferred); not fully specified (N-terminus); printed as DCAWHMGELVWCT-(βA)(βA); reading uncertain)
Result for incubation with human plasma (immunoglobulin binding detection) [1]: + | Result for incubation with serum albumin (immunoglobulin binding detection) [2]: 0 | Result for incubation with human IgG-Fc (immunoglobulin binding detection) [3]: +

11G: cellulose-bound 13-mer variant DCAWHLGELVGCT-(βA)(βA)
Result for incubation with human plasma (immunoglobulin binding detection) [1]: 0 | Result for incubation with serum albumin (immunoglobulin binding detection) [2]: 0 | Result for incubation with human IgG-Fc (immunoglobulin binding detection) [3]: 0

07I: cellulose-bound 13-mer variant DCAWHLIELVWCT-(βA)(βA) (DCAWHLIELVWCT-{βAla-βAla-cellulose}; disulfide 2-12 (inferred); not fully specified (N-terminus); printed as DCAWHLIELVWCT-(βA)(βA); reading uncertain)
Result for incubation with human plasma (immunoglobulin binding detection) [1]: 0 | Result for incubation with serum albumin (immunoglobulin binding detection) [2]: 0 | Result for incubation with human IgG-Fc (immunoglobulin binding detection) [3]: 0

04M: cellulose-bound 13-mer variant DCAMHLGELVWCT-(βA)(βA) (DCAMHLGELVWCT[βAla][βAla]; disulfide 2-12 (inferred); also: cellulose-bound)
Result for incubation with human plasma (immunoglobulin binding detection) [1]: + | Result for incubation with serum albumin (immunoglobulin binding detection) [2]: 0 | Result for incubation with human IgG-Fc (immunoglobulin binding detection) [3]: +

09M: cellulose-bound 13-mer variant DCAWHLGEMVWCT-(βA)(βA) (DCAWHLGEMVWCT-{βAla-βAla-cellulose}; disulfide 2-12 (inferred); reading uncertain; also: printed as DCAWHLGEMVWCT-(βA)(βA))
Result for incubation with human plasma (immunoglobulin binding detection) [1]: 0 | Result for incubation with serum albumin (immunoglobulin binding detection) [2]: 0 | Result for incubation with human IgG-Fc (immunoglobulin binding detection) [3]: +

08W: cellulose-bound 13-mer variant DCAWHLGWLVWCT-(βA)(βA) (DCAWHLGWLVWCT-{βAla-βAla-cellulose}; disulfide 2-12 (inferred); reading uncertain; also: printed as DCAWHLGWLVWCT-(βA)(βA))
Result for incubation with human plasma (immunoglobulin binding detection) [1]: 0 | Result for incubation with serum albumin (immunoglobulin binding detection) [2]: 0 | Result for incubation with human IgG-Fc (immunoglobulin binding detection) [3]: 0

09S: cellulose-bound 13-mer variant DCAWHLGESVWCT-(βA)(βA) (DCAWHLGESVWCT-{βAla-βAla-cellulose}; disulfide 2-12 (inferred); reading uncertain; also: printed as DCAWHLGESVWCT-(βA)(βA))
Result for incubation with human plasma (immunoglobulin binding detection) [1]: 0 | Result for incubation with serum albumin (immunoglobulin binding detection) [2]: 0 | Result for incubation with human IgG-Fc (immunoglobulin binding detection) [3]: 0

06H: cellulose-bound 13-mer variant DCAWHHGELVWCT-(βA)(βA) (DCAWHHGELVWCT-{βAla-βAla-cellulose}; disulfide 2-12 (inferred); not fully specified (N-terminus); printed as DCAWHHGELVWCT-(βA)(βA); reading uncertain)
Result for incubation with human plasma (immunoglobulin binding detection) [1]: + | Result for incubation with serum albumin (immunoglobulin binding detection) [2]: 0 | Result for incubation with human IgG-Fc (immunoglobulin binding detection) [3]: +

01W: cellulose-bound 13-mer variant WCAWHLGELVWCT-(βA)(βA) (WCAWHLGELVWCT-{βAla-βAla-cellulose}; disulfide 2-12 (inferred); reading uncertain; also: printed as WCAWHLGELVWCT-(βA)(βA))
Result for incubation with human plasma (immunoglobulin binding detection) [1]: 0 | Result for incubation with serum albumin (immunoglobulin binding detection) [2]: 0 | Result for incubation with human IgG-Fc (immunoglobulin binding detection) [3]: 0

06P: cellulose-bound 13-mer variant DCAWHPGELVWCT-(βA)(βA) (DCAWHPGELVWCT-{βAla-βAla-cellulose}; disulfide 2-12 (inferred); not fully specified (N-terminus); printed as DCAWHPGELVWCT-(βA)(βA); reading uncertain)
Result for incubation with human plasma (immunoglobulin binding detection) [1]: 0 | Result for incubation with serum albumin (immunoglobulin binding detection) [2]: 0 | Result for incubation with human IgG-Fc (immunoglobulin binding detection) [3]: 0

09W: cellulose-bound 13-mer variant DCAWHLGEWVWCT-(βA)(βA) (DCAWHLGEWVWCT-{βAla-βAla-cellulose}; disulfide 2-12 (inferred); reading uncertain; also: printed as DCAWHLGEWVWCT-(βA)(βA))
Result for incubation with human plasma (immunoglobulin binding detection) [1]: 0 | Result for incubation with serum albumin (immunoglobulin binding detection) [2]: 0 | Result for incubation with human IgG-Fc (immunoglobulin binding detection) [3]: 0

03C: cellulose-bound 13-mer variant DCCWHLGELVWCT-(βA)(βA) (DCCWHLGELVWCT-{βAla-βAla-cellulose}; disulfide (positions not given here); not fully specified; printed as DCCWHLGELVWCT-(βA)(βA); reading uncertain)
Result for incubation with human plasma (immunoglobulin binding detection) [1]: 0 | Result for incubation with serum albumin (immunoglobulin binding detection) [2]: 0 | Result for incubation with human IgG-Fc (immunoglobulin binding detection) [3]: 0

10D: cellulose-bound 13-mer variant DCAWHLGELDWCT-(βA)(βA) (DCAWHLGELDWCT-{βAla-βAla-cellulose}; disulfide 2-12 (inferred); reading uncertain; also: printed as DCAWHLGELDWCT-(βA)(βA))
Result for incubation with human plasma (immunoglobulin binding detection) [1]: 0 | Result for incubation with serum albumin (immunoglobulin binding detection) [2]: 0 | Result for incubation with human IgG-Fc (immunoglobulin binding detection) [3]: 0

03E: cellulose-bound 13-mer variant DCEWHLGELVWCT-(βA)(βA) (DCEWHLGELVWCT-{βAla-βAla-cellulose}; disulfide 2-12 (inferred); reading uncertain; also: printed as DCEWHLGELVWCT-(βA)(βA))
Result for incubation with human plasma (immunoglobulin binding detection) [1]: 0 | Result for incubation with serum albumin (immunoglobulin binding detection) [2]: 0 | Result for incubation with human IgG-Fc (immunoglobulin binding detection) [3]: +
